In patent US20070157323A1, “In vivo odorant receptor systems and their uses” (priority 2003, published 2007):

How the values were obtained:
[1] = tested on: generalist predator; conditions: volatiles released individually, Nicotiana attenuata; Kessler et al.; cited from earlier work
[2] = tested on: Oedaleus decorus asiaticus; conditions: both sexes; Chen et al.; cited from earlier work
[3] = tested on: Angaracris barabensis; conditions: both sexes; Chen et al.; cited from earlier work
[4] = tested on: V. pensylvanica; conditions: Davis et al.; MacDonald et al.; McGovern et al.; cited from earlier work
[5] = molecular target: T1, AgOr2 (Anopheles gambiae, UniProt Q8WTE6); test: Single-unit electrophysiology of Drosophila ab3A neuron (Δhalo) expressing AgOr2; type: in vivo; conditions: liquid odors diluted 10^−4, solid odors 0.2 mg/ml in paraffin oil, 0.5 s pulse, FIG. 1b
T1 construct: expressed in transfected cells; host or cells: Transgenic Drosophila, ab3A olfactory receptor neuron lacking Or22a/Or22b (Δhalo), GAL4-UAS
T1 sequence (Q8WTE6 1-378): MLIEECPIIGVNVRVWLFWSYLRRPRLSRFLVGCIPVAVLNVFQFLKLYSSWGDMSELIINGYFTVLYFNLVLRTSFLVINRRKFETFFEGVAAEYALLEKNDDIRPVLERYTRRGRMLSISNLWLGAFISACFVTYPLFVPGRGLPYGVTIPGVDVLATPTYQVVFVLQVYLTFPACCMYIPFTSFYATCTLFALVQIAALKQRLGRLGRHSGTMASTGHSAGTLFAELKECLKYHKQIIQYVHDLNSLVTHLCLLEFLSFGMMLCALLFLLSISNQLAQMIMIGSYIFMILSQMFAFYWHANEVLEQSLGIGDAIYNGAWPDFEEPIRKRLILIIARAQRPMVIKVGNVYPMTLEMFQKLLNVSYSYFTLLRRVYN
T1 sequence (Q9VNB5 1-486 partner): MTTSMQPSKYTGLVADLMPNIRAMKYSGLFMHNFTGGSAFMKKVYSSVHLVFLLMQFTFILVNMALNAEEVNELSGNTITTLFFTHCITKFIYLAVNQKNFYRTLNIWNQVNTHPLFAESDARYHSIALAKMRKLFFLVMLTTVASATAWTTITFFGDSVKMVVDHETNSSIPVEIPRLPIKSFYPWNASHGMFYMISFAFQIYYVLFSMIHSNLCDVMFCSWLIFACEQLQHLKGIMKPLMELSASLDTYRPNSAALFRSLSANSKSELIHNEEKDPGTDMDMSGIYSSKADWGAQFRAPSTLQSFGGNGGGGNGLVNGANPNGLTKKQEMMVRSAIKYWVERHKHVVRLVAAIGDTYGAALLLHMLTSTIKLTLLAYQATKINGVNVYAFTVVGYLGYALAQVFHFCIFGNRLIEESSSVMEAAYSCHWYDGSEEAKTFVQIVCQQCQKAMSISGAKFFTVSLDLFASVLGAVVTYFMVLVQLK
Procedure: (§1) In summary, odorant receptors are introduced specifically into Δab3A using the GAL4/UAS system and Or22a-GAL4 is used to drive expression from a UAS-Or construct. The odorant response of the neuron (Δab3A:OrX) is assayed electrophysiologically.
(§2) To investigate the function of the A. gambiae odorant receptor genes AgOr1 and AgOr2 directly, these genes were expressed in the Drosophila olfactory receptor neuron that lacks odor response due to the deletion of its endogenous receptor genes, Or22a and Or22b using an Or22a promoter and the GAL4-UAS system.
(§3) AgOr1 and AgOr2 were expressed in the Δhalo background using the GAL4-UAS system. Specifically AgOr1 or AgOr2 was placed under the control of a UAS and expressed using the 22a-GAL4 driver so as to drive its expression in ab3A cells. […]
(§4) Action potentials of the ORNs in a sensillum were recorded by placing an electrode through the sensillum wall into contact with the lymph that bathes the dendrites. […] Recordings were analyzed offline in IGOR-Pro (WaveMetrics, Lake Oswego, Oreg.).
(§5) Odor stimuli were presented from Pasteur pipettes holding solutions of chemicals in paraffin oil on filter paper. […] Responses of the ab3A neurons were quantified by subtracting the number of impulses (i.e., spikes) in 500 ms of spontaneous activity from the number in the 500 ms after the onset of odor stimulation (FIG. 1).

[6] = tested on: Rhagoletis pomonella flies; conditions: Nojima et al.; cited from earlier work
[7] = tested on: Glossina morsitans morsitans; conditions: Vale et al., 1988; cited from earlier work
[8] = molecular target: T2, AgOr1 (Anopheles gambiae, UniProt Q8WTE7); test: Single-unit electrophysiology of Drosophila ab3A neuron (Δhalo) expressing AgOr1; type: in vivo; conditions: liquid odors diluted 10^−4, solid odors 0.2 mg/ml in paraffin oil, 0.5 s pulse, FIG. 1a
T2 construct: expressed in transfected cells; host or cells: Transgenic Drosophila, ab3A olfactory receptor neuron lacking Or22a/Or22b (Δhalo), GAL4-UAS
T2 sequence (Q8WTE7 1-417): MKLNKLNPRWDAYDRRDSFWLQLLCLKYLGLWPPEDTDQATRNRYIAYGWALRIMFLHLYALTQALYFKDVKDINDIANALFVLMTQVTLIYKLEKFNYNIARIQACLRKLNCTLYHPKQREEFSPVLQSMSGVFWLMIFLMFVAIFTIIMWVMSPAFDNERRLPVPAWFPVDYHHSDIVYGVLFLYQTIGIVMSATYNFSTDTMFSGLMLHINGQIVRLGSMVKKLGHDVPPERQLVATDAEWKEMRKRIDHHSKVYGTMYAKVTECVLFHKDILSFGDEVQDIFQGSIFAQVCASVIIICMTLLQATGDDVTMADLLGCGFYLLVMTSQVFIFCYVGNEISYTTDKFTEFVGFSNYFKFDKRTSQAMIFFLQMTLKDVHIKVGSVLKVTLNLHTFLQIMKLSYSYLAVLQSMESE
T2 sequence (Q9VNB5 1-486 partner): T1 sequence (Q9VNB5 1-486 partner)
Procedure: as §1, §2, §3, §4, §5

[9] = tested on: Aper PBP1; conditions: cited from earlier work
[10] = tested on: Apol PBP3; conditions: 3H-labeled ligand; cited from earlier work
[11] = tested on: Apol PBP1a; conditions: 3H-labeled ligand; cited from earlier work
[12] = molecular target: T3, Aper PBP2 (Antheraea pernyi, UniProt Q17078); conditions: cited from earlier work
T3 construct: from tissue; host or cells: Sensory hair homogenates of A. pernyi (study quoted from the literature)
T3 sequence (Q17078 23-164): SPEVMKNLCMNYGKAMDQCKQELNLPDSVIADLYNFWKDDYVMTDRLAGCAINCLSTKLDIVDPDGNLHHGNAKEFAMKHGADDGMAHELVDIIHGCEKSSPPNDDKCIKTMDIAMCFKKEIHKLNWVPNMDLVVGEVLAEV

[13] = tested on: ab3A neuron; conditions: cited from earlier work; for strongest responses of the A neuron: sensilla expressing Or22a and Or22b
[14] = tested on: B neuron; conditions: sensilla expressing Or22a and Or22b; cited from earlier work
[15] = tested on: lepidopteran; conditions: Nicotiana attenuata; Kessler et al.; cited from earlier work

SMILES: CC(C)=CCC[C@]1(C)[C@H]2CC=C(C)[C@@H]1C2 (relative stereo) [cis-alpha-bergamotene]
- egg predation rates by a generalist predator [1]: increased egg predation rates

SMILES: CCCCCCCO [1-heptanol]
- EAG responses [2]: Strong EAG responses
- EAG responses [3]: Strong EAG responses

SMILES: CCCCCCO [1-hexanol]
- EAG responses [2]: Strong EAG responses
- EAG responses [3]: Strong EAG responses

SMILES: CC=CC=CCOC(=O)CCC [2,4-Hexadienyl butyrate]
- attraction of V. pensylvanica [4]: attract

SMILES: CC=CC=CCOC(=O)C(C)C [2,4-hexadienyl isobutyrate]
- attraction of V. pensylvanica [4]: attract

SMILES: CC=CC=CCOC(=O)CC [2,4-hexadienyl propionate]
- attraction of V. pensylvanica [4]: attract

SMILES: Cc1ccccc1O [2-methylphenol]
- odor response conferred by AgOr2 [5]: strong response

SMILES: CC(C)CCO [3-methylbutan-1-ol]
- EAD activity [6]: Consistent EAD activity

SMILES: C=C/C=C(\C)CCC=C(C)C [4,8-dimethyl-1,3(E),7-nonatriene]
- EAD activity [6]: Consistent EAD activity

SMILES: Cc1ccc(O)cc1 [4-methylphenol]
- effectiveness of traps for the tsetse fly [7]: increase the effectiveness of traps
- odor response conferred by AgOr2 [5]: not
- odor response of mutant flies expressing AgOr1 [8]: strong response

SMILES: CCCC/C=C\CCC/C=C/CCCCCOC(C)=O [AC1, (E,Z)-6,11-hexadecadienyl acetate]
- binding affinity to Aper PBP1 [9]: showed binding affinity
- binding to Apol PBP3 [10]: bound
- binding to Apol PBP1a [11]: bound

SMILES: CCCC/C=C\CCC/C=C/CCCCC=O [ALD, (E,Z)-6,11-hexadecadienal]
- binding to Apol PBP3 [10]: no binding
- binding to Apol PBP1a [11]: no binding
- binding affinity to Aper PBP2 [12]: showed binding affinity

SMILES: CCC/C=C/C=O [E-2-hexen-1-al]
- EAG responses [2]: Strong EAG responses
- EAG responses [3]: Strong EAG responses

SMILES: CCC/C=C/CO [E-2-hexen-1-ol]
- EAG responses [2]: Strong EAG responses
- EAG responses [3]: Strong EAG responses

SMILES: CC/C=C/CCO [E-hexen-3-ol-1]
- EAG responses [2]: Strong EAG responses
- EAG responses [3]: Strong EAG responses

SMILES: CCC/C=C\CO [Z-hexen-2-ol-1]
- EAG responses [2]: Strong EAG responses
- EAG responses [3]: Strong EAG responses

SMILES: CC/C=C\CCOC(C)=O [Z-hexen-3-yl acetate]
- EAG responses [2]: Strong EAG responses
- EAG responses [3]: Strong EAG responses

SMILES: CCCCCC(=O)OCCCC [butyl hexanoate]
- EAD activity [6]: Consistent EAD activity

SMILES: CC/C=C\CCO [cis-3-hexen-1-ol]
- egg predation rates by a generalist predator [1]: increased egg predation rates

SMILES: CC(=O)CCC1=C(C)CCCC1(C)C [dihydro-beta-ionone]
- EAD activity [6]: Consistent EAD activity

SMILES: CCOC(C)=O [ethyl acetate]
- strongest responses of the A neuron [13]: strongest responses
- EAD activity [6]: Consistent EAD activity

SMILES: CCCC(=O)OCC [ethyl butyrate]
- sensitivity of ab3A ([13]; in vivo): highly sensitive
- strongest responses of the A neuron [13]: strongest responses

SMILES: CCCCCC(C)=O [heptanone]
- strongest responses of the B neuron [14]: strongest responses

SMILES: CCCCCCCOC(=O)CCC [heptyl butyrate]
- attraction of V. pensylvanica [4]: attract

SMILES: CCCCCCO [hexanol]
- strongest responses of the B neuron [14]: strongest responses

SMILES: CC(=O)OCCC(C)C [isoamyl acetate]
- EAD activity [6]: Consistent EAD activity

SMILES: C=CC(C)(O)CCC=C(C)C (stereo not shown) [linalool]
- lepidopteran oviposition rates [15]: decreased lepidopteran oviposition rates
- egg predation rates by a generalist predator [1]: increased egg predation rates

SMILES: C=CC(O)CCCCC (stereo not shown) [octenol]
- strongest responses of the B neuron [14]: strongest responses

SMILES: CCCCCCCCOC(=O)CCC [octyl butyrate]
- attraction of V. pensylvanica [4]: attract

SMILES: CCCCCOC(C)=O [pentyl acetate]
- strongest responses of the A neuron [13]: strongest responses
